Measured values from publication PMC12040169 (PLOS Biology, 2025).

test: in vitro; conditions: human, hela cells, % viability

| Structure (SMILES) | viability at 28.5 h, 10 µM [%] |
| --- | --- |
| CC[C@H]1CN(C(=O)c2ccnc(Cl)c2)CC[C@H]1CC(=O)NCc1ccc2c(c1)OCO2 [CBK289137] | 110 |
| CCCNC(=O)C[C@@H]1CCN(C(=O)c2ccnc(Cl)c2)C[C@@H]1CC [CBK289138] | 99.3 |
| CC[C@H]1CN(S(=O)(=O)c2ccccc2)CC[C@H]1CC(=O)N(C)CC#N [CBK289140] | 108 |
| CC[C@H]1CN(S(C)(=O)=O)CC[C@H]1CC(=O)NCc1ccco1 [CBK289141] | 89.2 |
| C=CCNC(=O)C[C@@H]1CCN(C(=O)c2cccnc2)C[C@@H]1CC [CBK289142] | 92.3 |
| CC[C@H]1CN(C(=O)c2cccnc2)CC[C@H]1CC(=O)NCc1ccc(F)cc1 [CBK289143] | 88.6 |
| COCc1cc(C[C@H]2CNCC[C@H]2CC(=O)N2CCc3ccccc3C2)no1 [CBK289144] | 88.4 |
| CC(C)NC(=O)C[C@@H]1CCNC[C@@H]1Cc1cc(-c2ccccc2)on1 [CBK289147] | 83.7 |
| O=C(C[C@@H]1CCNC[C@@H]1Cc1cc(-c2ccccc2)on1)Nc1cccc(O)c1 [CBK289149] | 102 |
| O=C(C[C@@H]1CCNC[C@@H]1Cc1cc(-c2ccccc2)on1)N1CCN(c2ccccn2)CC1 [CBK289150] | 81 |
| COc1ccc2c(c1)CCN=C2C[C@H]1CN(C(=O)C2CC2)CC[C@H]1CC(=O)O [CBK289154] | 108 |
| COc1ccc2c(c1)CCN=C2C[C@H]1CN(C(=O)C(C)(C)C)CC[C@H]1CC(=O)O [CBK289155] | 92.5 |
| O=C(O)C[C@@H]1CCN(C(=O)C2CCCCC2)C[C@@H]1CC1=NCCc2ccccc21 [CBK289158] | 101 |
| O=C(O)C[C@@H]1CCN(C(=O)NCc2ccccc2)C[C@@H]1CC1=NCCc2ccccc21 [CBK289161] | 94.7 |
| Cc1ccc2c(c1)C(C[C@H]1CN(C(=O)C3CCCC3)CC[C@H]1CC(=O)O)=NCC2 [CBK289163] | 88.5 |
| CC(=O)N1CC[C@@H](CC(=O)O)[C@@H](CC2=NCCc3ccc(C(C)(C)C)cc32)C1 [CBK289165] | 84.4 |
| O=C(O)C[C@@H]1CCN(C(=O)c2ccco2)C[C@@H]1CC1=NCCc2cc(F)ccc21 [CBK289166] | 91.1 |
| Cc1nn(-c2ccccn2)c(C)c1[C@@H]1C=C[C@@H](NS(C)(=O)=O)C1 [CBK289169] | 86.8 |
| Cc1nn(-c2ccccn2)c(C)c1[C@@H]1C=C[C@@H](NC(=O)CCC(=O)O)C1 [CBK289170] | 81.9 |
| Cc1nn(CCC#N)c(C)c1[C@@H]1C=C[C@@H](NC(=O)Nc2ccccc2)C1 [CBK289173] | 92.9 |
| Cc1nn(CCC#N)c(C)c1[C@@H]1C=C[C@@H](NC(=O)NCc2ccccc2)C1 [CBK289174] | 96.8 |
| CC(C)(C)CC(=O)N1C[C@@H]2C[C@H](C1)c1ccc(NC(=O)Nc3ccccc3)c(=O)n1C2 [CBK289176] | 85.8 |
| O=C(Nc1ccc2n(c1=O)C[C@@H]1CNC[C@H]2C1)c1ccncc1 [CBK289177] | 107 |
| COc1ccc(-c2ccc3n(c2=O)C[C@H]2C[C@@H]3CN(C(=O)c3ccncc3)C2)cc1 [CBK289178] | 90.8 |
| O=C(O)CCC(=O)N1C[C@@H]2C[C@H](C1)c1ccc(-c3ccc4ccccc4c3)c(=O)n1C2 [CBK289179] | 107 |

| Structure (SMILES) | viability at 28.5 h, 10 µM [%] |
| --- | --- |
| COc1ccc(C(=O)N2C[C@@H]3C[C@H](C2)c2ccc(-c4cccnc4)c(=O)n2C3)cc1 [CBK289182] | 86.7 |
| CC(C)NC(=O)N1C[C@@H]2C[C@H](C1)c1ccc(-c3cccnc3)c(=O)n1C2 [CBK289184] | 97.5 |
| COc1ccccc1NC(=O)N1C[C@@H]2C[C@H](C1)c1ccc(-c3cncnc3)c(=O)n1C2 [CBK289186] | 114 |
| N#Cc1ccc(C(=O)N2C[C@@H]3C[C@H](C2)c2ccc(-c4cccc(C#N)c4)c(=O)n2C3)cc1 [CBK289187] | 101 |
| O=C(O)CCC(=O)N1C[C@@H]2C[C@H](C1)c1c(-c3ccc(Cl)cc3)ccc(=O)n1C2 [CBK289190] | 85.9 |
| CSCC(=O)N1C[C@@H]2C[C@H](C1)c1c(-c3cncnc3)ccc(=O)n1C2 [CBK289195] | 79.4 |
| CC(=O)Nc1ccc(-c2ccc(=O)n3c2[C@@H]2C[C@@H](CN(C(=O)C(C)(C)C)C2)C3)cc1 [CBK289199] | 112 |
| CC(=O)Nc1ccc(-c2ccc(=O)n3c2[C@@H]2C[C@@H](CN(C4CCOCC4)C2)C3)cc1 [CBK289201] | 98 |
| O=C(Nc1ccc2n(c1=O)C[C@H]1C[C@@H]2CN(C(=O)Cc2cccs2)C1)c1ccco1 [CBK289204] | 102 |
| O=C(Nc1ccc2n(c1=O)C[C@H]1C[C@@H]2CN(C(=O)Nc2ccc(F)cc2)C1)c1ccco1 [CBK289205] | 85.4 |
| CC1=C[C@@H](CNS(C)(=O)=O)[C@H](C(C)C)C[C@H]1CC(=O)Nc1ccccn1 [CBK289208] | 89.3 |
| CC1=C[C@@H](CNC(=O)NC2CCCCC2)[C@H](C(C)C)C[C@H]1CC(=O)O [CBK289211] | 80.3 |
| CC1=C[C@@H](CNC(=O)c2ccccn2)[C@H](C(C)C)C[C@H]1CC(=O)O [CBK289212] | 87.5 |
| CC(=O)N1CCN(C[C@@H]2C=C(C)[C@H](Cc3nnc(C)o3)C[C@H]2C(C)C)CC1 [CBK289219] | 114 |
| CC1=C[C@@H](CO)[C@H](C(C)C)C[C@H]1Cc1nnc(-c2ccncc2)o1 [CBK289222] | 110 |
| CC1=C[C@@H](CO)[C@H](C(C)C)C[C@H]1Cc1nnc(Cc2c[nH]c3ccccc23)o1 [CBK289223] | 89.1 |
| CC1=C[C@@H](CO)[C@H](C(C)C)C[C@H]1Cc1nnc(-c2ccc(N(C)C)cc2)o1 [CBK289224] | 65 |
| CC(=O)c1ccc(NC(=O)N[C@H]2CCN3C(=O)[C@H]4CCCN4C(=O)[C@H]23)cc1 [CBK289228] | 108 |
| CC(=O)c1ccc(NC(=O)N[C@H]2CCN3C(=O)[C@@H](Cc4ccccc4)NC(=O)[C@H]23)cc1 [CBK289229] | 85.9 |
| COc1cccc(NC(=O)N[C@H]2CCN3C(=O)[C@@H](Cc4ccccc4)NC(=O)[C@H]23)c1 [CBK289230] | 94.5 |
| O=C(N[C@H]1CCN2C(=O)[C@@H](Cc3ccccc3)NC(=O)[C@H]12)c1cnccn1 [CBK289231] | 83.6 |
| O=C(N[C@H]1CCN2C(=O)[C@@H](Cc3c[nH]c4ccccc34)NC(=O)[C@H]12)c1cnccn1 [CBK289232] | 89.3 |
| CC1(C)[C@H](Cc2cc(CO)on2)C[C@@H]1N(Cc1ccncc1)Cc1ccncc1 [CBK289233] | 98.2 |
| CS(=O)(=O)c1ccc(CN2C[C@@H]3OCC(=O)N(c4ccccc4)[C@@H]3C2)cc1 [CBK289237] | 93.2 |
| CC(=O)Nc1ccc(CN2C[C@@H]3OCC(=O)N(C)[C@@H]3C2)cc1 [CBK289240] | 85.5 |

| Structure (SMILES) | viability at 28.5 h, 10 µM [%] |
| --- | --- |
| CC(=O)N[C@H]1C[C@@H](Cc2cc(CN3CCN(c4ccccc4)CC3)on2)C1(C)C [CBK289241] | 109 |
| NC(=O)CN1C(=O)CO[C@H]2CN(Cc3cnc4ccccc4c3)C[C@H]21 [CBK289242] | 106 |
| CC1(C)[C@H](Cc2cc(CN3CCOCC3)on2)C[C@@H]1NC(=O)C1CC1 [CBK289246] | 113 |
| CC(C)(C)C(=O)N[C@H]1C[C@@H](Cc2cc(CN3CCOCC3)on2)C1(C)C [CBK289247] | 96.2 |
| c1ccc(-c2cc(CC3(NCc4c[nH]c5ccccc45)COC3)no2)nc1 [CBK289250] | 102 |
| COCc1cc(C[C@@H]2C[C@H](NC(=O)C(C)(C)C)C2(C)C)no1 [CBK289251] | 81.3 |
| COCc1cc(C[C@@H]2C[C@H](NS(C)(=O)=O)C2(C)C)no1 [CBK289252] | 92.5 |
| CC(C)(C)C(=O)N[C@H]1C[C@@H](Cc2cc(CO)on2)C1(C)C [CBK289260] | 92.1 |
| Fc1ccc(-c2c[nH]c([C@@H]3COCCN3Cc3ncc[nH]3)n2)cc1 [CBK289263] | 95.5 |
| CC(C)[C@H]1NC(=O)[C@@H]2[C@@H](NC(=O)NC3CCCCC3)CCN2C1=O [CBK289264] | 113 |
| CSCC(=O)N1CC[C@H](NC(=O)NC2CCCCC2)[C@H]1C(=O)N1CCC[C@@H]1C(N)=O [CBK289265] | 124 |
| COc1ccc(C(=O)N2CC[C@@H]3NC(=O)[C@H]4C[C@H](NC(=O)C5CCC5)CN4C(=O)[C@H]32)cc1 [CBK289268] | 111 |
| CC(=O)N1CC[C@@H]2NC(=O)[C@H]3C[C@H](NC(=O)c4ccc(F)c(Cl)c4)CN3C(=O)[C@H]21 [CBK289270] | 87 |
| Cn1cccc1C(=O)N[C@H]1C[C@@H]2C(=O)N[C@H]3CCN(C(=O)CC(C)(C)C)[C@@H]3C(=O)N2C1 [CBK289271] | 111 |
| Cn1cccc1C(=O)N[C@H]1C[C@@H]2C(=O)N[C@H]3CCN(C(=O)C4CCCC4)[C@@H]3C(=O)N2C1 [CBK289272] | 97.1 |
| O=C1Nc2ccc(-c3cccc(C(F)(F)F)c3)cc2C(=O)N2C[C@H](O)C[C@@H]12 [CBK289273] | 106 |
| O=C(N[C@H]1CCN2C(=O)c3cc(-c4ccccc4F)ccc3NC(=O)[C@H]12)c1cnccn1 [CBK289274] | 84.7 |
| COc1cccc(N2C(=O)N[C@@H]3CCN(C(=O)c4cccs4)[C@@H]3C2=O)c1 [CBK289279] | 82.3 |
| COCC(=O)N1CC[C@@H]2[C@H]1C(=O)N(c1ccc(OC)cc1)C(=O)N2Cc1ccccc1 [CBK289280] | 92.9 |
| COc1ccc(C(=O)N2CC[C@H]3NC(=O)N(c4ccccc4)C(=O)[C@H]32)cc1 [CBK289281] | 93.1 |
| N#Cc1ccc(C(=O)N2CC[C@H]3NC(=O)N(c4ccccc4)C(=O)[C@H]32)cc1 [CBK289282] | 80.5 |
| CC(C)c1ccc(N2C(=O)N[C@@H]3CCN(C(=O)c4cccs4)[C@@H]3C2=O)cc1 [CBK289286] | 90.7 |
| CC(C)c1ccc(N2C(=O)N[C@@H]3CCN(C(=O)COc4ccccc4)[C@@H]3C2=O)cc1 [CBK289288] | 98.2 |
| COc1ccc(S(=O)(=O)N2CC[C@H]3NC(=O)N(c4ccc(C(C)C)cc4)C(=O)[C@H]32)cc1 [CBK289290] | 107 |
